Source: patent publication US20250236595A1 (priority 2020, published 2025)

How the values were obtained:
[1] = system: PACAP; experiment: Level of PACAP in serum of mice after intraperitoneal injection (ELISA kit); assay type: in vivo, BALb/c mice; details: SPAM1 10 and 100 μmol/kg intraperitoneal; blood 30 min after injection; vs normal saline control
Experimental: Thirty BALb/c mice (SPF grade, 8-10 weeks old, weighing 22-27 g, half female and half male) were randomly divided into following […], with 10 mice in each group: 1) SPAM1 low-dose group, intraperitoneal injection, 10 μmol/kg; 2) SPAM1 high-dose group, intraperitoneal injection, 100 μmol/kg; 3) normal control group, injected with normal saline intraperitoneally; 30 min after the injection, blood was collected from the orbit, and serum was assayed for PACAP using an ELISA kit.

[2] = system: PAC1-R; experiment: PAC1-R expression in Neuro2a cells, western blot with anti-PAC1-R (C-terminal) antibody; assay type: cell-based, Mouse; details: SPAM1 at 1 μM, 10 μM and 100 μM, incubated 1 h
Experimental: Mouse nerve cells Neuro2a naturally expressing the PAC1-R were cultured until the fusion rate was more than 80%, added with SPAM1 at 1 μM, 10 μM and 100 μM, and disrupted after being incubated for 1 h. The supernatant of the whole cell lysate was subjected to SDS-PAGE and the western blot assay using the anti-PAC1-R (C-terminal) antibody.

[3] = system: PAC1-R; experiment: PAC1-R expression in SHSY-5Y cells, confocal immunofluorescence; assay type: cell-based, Human; details: 100 μM SPAM1, incubated 1 h
Experimental: Human nerve cells SHSY-5Y naturally expressing the PAC1-R were cultured until the fusion rate was more than 80%, added with 100 μM SPAM1, and observed by confocal immunofluorescence after being incubated for 1 h.

[4] = system: corticosterone; experiment: Level of corticosterone (COR) in serum of mice after intraperitoneal injection (ELISA); assay type: in vivo, BALb/c mice; details: SPAM1 10, 100 and 1000 μmol/kg intraperitoneal; blood 1 h after injection; vs normal saline control
Experimental: Forty BALb/c mice (SPF grade, 8-10 weeks old, weighing 22-27 g, half female and half male) were randomly divided into following […], with 10 mice in each group: 1) SPAM1 low-dose group, intraperitoneal injection, 10 μmol/kg; 2) SPAM1 medium-dose group, intraperitoneal injection, 100 μmol/kg; 3) SPAM1 high-dose group, intraperitoneal injection, 1000 μmol/kg; 4) normal control group, injected with normal saline intraperitoneally; 1 h after the injection, blood was collected from the orbit, and the level of COR in serum was measured by the solid phase sandwich enzyme-linked immunosorbent assay (ELISA).

[5] = system: D-galactose-induced aging model; experiment: D-galactose-induced aging model, ovarian decline: estradiol and luteinizing hormone in serum (ELISA); assay type: in vivo, BALB/c female mice; details: female mice, D-galactose 200 mg/kg/d*42d; SPAM1 10 or 100 μmol/kg/d*28d i.p. from day 15; high dose more significant than low
Experimental: (§1) A D-galactose-induced aging model was used. Forty BALB/c female mice (SPF grade, 8-10 weeks old, weighing 22-27 g) were randomly divided into following 4 groups, with 10 mice in each group: 1) aging model group, injected with D-galactose (200 mg/kg/d*42d) subcutaneously at the neck or back; 2) SPAM1 low-dose treatment group, injected with D-galactose as in group 1), and injected with low-dose SPAM1 (10 μmol/kg/d*28d) intraperitoneally on day 15; 3) SPAM1 high-dose treatment group, injected with D-galactose as in group 1), and injected with high-dose SPAM1 (100 μmol/kg/d*28d) intraperitoneally on day 15; and 4) normal control group, injected with normal saline intraperitoneally instead of D-galactose and SPAM1; 24 h after the completion of all injections, blood was collected from the orbit, and the level of estradiol and luteinizing hormone in serum was assayed by the enzyme-linked immunosorbent assay (ELISA).

[6] = system: D-galactose-induced aging model; experiment: D-galactose-induced aging model, testicular decline: testosterone in serum (ELISA); assay type: in vivo, BALB/c male mice; details: male mice, D-galactose 200 mg/kg/d*42d; SPAM1 10 or 100 μmol/kg/d*28d i.p. from day 15; high dose more significant than low
Experimental: as §1, with “male” for “female”, “after” for “after the completion of”, “testosterone” for “estradiol and luteinizing hormone”

[7] = system: dexamethasone-induced thymus decline model; experiment: Dexamethasone-induced thymus decline model, thymus index; assay type: in vivo, BALB/c mice; details: dexamethasone 25 mg/kg/d*2d i.p.; SPAM1 10 or 100 μmol/kg/d*2d i.p. at the same time
Experimental: A dexamethasone-induced thymus decline model was used. Forty BALB/c mice (SPF grade, half male and half female, 8-10 weeks old, weighing 22-27 g) were randomly divided into following 4 groups, with 10 mice in each group: 1) aging model group, injected with dexamethasone (25 mg/kg/d*2d) intraperitoneally; 2) SPAM1 low-dose treatment group, injected with dexamethasone as in group 1), and injected with SPAM1 at a low dose (10 μmol/kg/d*2d) intraperitoneally at the same time; 3) SPAM1 high-dose treatment group, injected with dexamethasone as in group 1), and injected with SPAM1 at a high dose (100 μmol/kg/d*2d) intraperitoneally at the same time; and 4) normal control group, injected with normal saline intraperitoneally instead of dexamethasone and SPAM1; 24 h after the completion of the final injection, the mice were weighed and sacrificed by cervical dislocation method, the thymus of the mice was weighed, and the thymus index was calculated according to: thymus index=thymus weight (mg)/body weight (g).

[8] = system: LPS-induced sepsis model; experiment: LPS-induced sepsis model, survival; assay type: in vivo, BALB/c mice; details: SPAM1 10 or 100 μmol/kg i.p. 30 min before 15 mg/kg LPS at the tail vein; survival recorded for 8 days
Experimental: An LPS-induced sepsis model was used. Forty BALB/c mice (SPF grade, half male and half female, 8-10 weeks old, weighing 22-27 g) were randomly divided into following 4 groups, with 10 mice in each group: 1) sepsis model group, injected with normal saline intraperitoneally, and 30 min later, injected with 15 mg/kg LPS at the tail vein; 2) SPAM1 low-dose treatment group, injected with low-dose SPAM1 (10 μmol/kg) intraperitoneally, and 30 min later, injected with 15 mg/kg LPS at the tail vein; 3) SPAM1 high-dose treatment group, injected with high-dose SPAM1 (100 μmol/kg) intraperitoneally, and 30 min later, injected with 15 mg/kg LPS at the tail vein; and 4) normal control group, injected with normal saline intraperitoneally, and 30 min later, injected with normal saline at the tail vein; the survival of mice was observed every 24 h, and the survival rate of each group was recorded for 8 days.

[9] = cited from earlier work

Compound	level of PACAP in serum [1]	expression of PAC1-R in nerve cells Neuro2a (western blot) [2]	red fluorescent signal targeting PAC1-R in SHSY-5Y cells [3]	level of COR in serum [4]	level of estradiol in serum of aging mice [5]	level of luteinizing hormone in serum of aging mice [5]	level of testosterone in serum of aging mice [6]	thymus index (thymus weight (mg)/body weight (g)) [7]	death rate / survival rate in LPS-induced sepsis [8]	in vivo half-life [9]
O=C(CCCc1nc2ccccc2c(=O)[nH]1)NCc1ccc(C(=O)O)cc1	effectively up-regulated the level of PACAP in serum and the up-regulation was concentration-dependent	up-regulated the expression of PAC1-R in nerve cells in a concentration-dependent manner	significantly up-regulated	increased the level of COR in a concentration-dependent manner	effectively up-regulated	effectively up-regulated	effectively up-regulated	effectively inhibited the dexamethasone-induced down-regulation of thymus index	effectively inhibited death caused by LPS-induced sepsis	
PACAP38										less than 2 min
